Laboratory results published in ChEMBL document CHEMBL1641593, “Benzothieno[3,2-b]quinolinium and 3-(phenylthio)quinolinium compounds: Synthesis and evaluation against opportunistic fungal pathogens” (Bioorg Med Chem, 2011).
≈ marks a conversion by molar mass, not a printed value. Calls of active or inactive are those of the source. The rule behind the calls is not given here.

Experiments:
[1] = test system: Candida albicans; assay: Antifungal activity against Candida albicans ATCC 90028 by CLSI method; format: functional, organism-based
[2] = test system: Vero; assay: Cytotoxicity against african green monkey Vero cells after 48 hrs by neutral red assay; format: cell-based; details: Chlorocebus sabaeus
[3] = test system: Aspergillus fumigatus; assay: Antifungal activity against Aspergillus fumigatus ATCC 90906 by CLSI method; format: functional, organism-based
[4] = test system: Cryptococcus neoformans; assay: Antifungal activity against Cryptococcus neoformans ATCC 90113 by CLSI method; format: functional, organism-based
[5] = test system: Cryptococcus neoformans; assay: Antifungal activity against Cryptococcus neoformans ATCC 90113 at 20 ug/ml by CLSI method; format: functional, organism-based
[6] = test system: Candida albicans; assay: Antifungal activity against Candida albicans ATCC 90028 at 20 ug/ml by CLSI method; format: functional, organism-based
[7] = test system: Aspergillus fumigatus; assay: Antifungal activity against Aspergillus fumigatus ATCC 90906 at 20 ug/ml by CLSI method; format: functional, organism-based
[8] = test system: Pichia kudriavzevii; assay: Antifungal activity against Candida krusei ATCC 6258 by CLSI method; format: functional, organism-based

| Structure (SMILES) | MIC ([1]; Candida albicans, ATCC 90028) [µg/mL] | MIC [3] [µg/mL] | MIC [4] [µg/mL] | IC50 ([1]; Candida albicans, ATCC 90028) [µg/mL] | IC50 [3] [µg/mL] | IC50 [2] [µg/mL] | Activity [5] | IC50 [4] [µg/mL] | other results |
| --- | --- | --- | --- | --- | --- | --- | --- | --- | --- |
| COc1ccc2c(c1)sc1cc3ccccc3[n+](C)c12.[I-] | 20 | 2.5 |  | 6 | 1 |  | inactive |  |  |
| COc1cccc2cc3sc4ccccc4c3[n+](C)c12.O=S(=O)([O-])C(F)(F)F | > 20 | 5 | > 20 | 15 | 3 |  |  | 15 |  |
| C[n+]1c2ccccc2cc2sc3ccccc3c21.O=S(=O)([O-])C(F)(F)F | > 20 | > 20 | > 20 | 10 |  | > 23.8 |  | > 15 |  |
| C[n+]1c2ccccc2cc2[n-]c3ccccc3c21 [CRYPTOLEPINE] |  |  |  |  |  | 3.2 (≈ 13.8 µM) |  | 12.5 (≈ 53.8 µM) |  |
| C[n+]1c2cc(Cl)ccc2cc2sc3ccccc3c21.O=S(=O)([O-])C(F)(F)F |  |  | > 20 |  |  | > 10 |  | 10 | Activity [6]: inactive; Activity [7]: inactive |
| C[n+]1c2cccc(O)c2cc2sc3ccccc3c21 |  |  |  |  |  |  | inactive |  | Activity [6]: inactive; Activity [7]: inactive |
| C[n+]1c2cccc(Cl)c2cc2sc3ccccc3c21.O=S(=O)([O-])C(F)(F)F |  | 10 |  |  | 3 |  | inactive |  | Activity [6]: inactive |
| COc1ccc2c(c1)cc1sc3ccccc3c1[n+]2C.[I-] | > 20 |  | 8 | > 20 | 20 | > 23.8 |  |  |  |
| C[n+]1c2ccccc2cc2sc3ccc(Cl)cc3c21.[I-] | > 20 |  |  | 20 |  | > 10 | inactive |  | Activity [7]: inactive |

Second part, led by results:

| MIC ([1]; Candida albicans, ATCC 90028) [µg/mL] | MIC [3] [µg/mL] | MIC [4] [µg/mL] | IC50 ([1]; Candida albicans, ATCC 90028) [µg/mL] | IC50 [3] [µg/mL] | Structure (SMILES) | IC50 [2] [µg/mL] | Activity [5] | IC50 [4] [µg/mL] | other results |
| --- | --- | --- | --- | --- | --- | --- | --- | --- | --- |
| 7.8 | > 20 | > 20 |  |  | C[n+]1c2ccccc2cc2sc3ccccc3c21.[I-] | > 23.8 |  |  |  |
| 10 | 1.3 | 5 | 5.5 |  | [I-].c1ccc(CCCCC[n+]2cc(Sc3ccccc3)cc3ccccc32)cc1 |  |  | 1.5 | MFC [1]: 20 µg/mL; MFC ([1]; Candida albicans, ATCC 90028, read-out: MFC): > 20 µg/mL; IC50 [8]: 1.5 µg/mL; MFC [8]: 20 µg/mL; MIC [8]: 5 µg/mL; MFC [3]: > 20 µg/mL; MFC [4]: 10 µg/mL |
| 5 | 10 | 1.3 | 2.7 | 8.6 | [I-].c1ccc(Sc2cc3ccccc3[n+](CCCCCC3CCCCC3)c2)cc1 | 4.6 |  | 0.5 | IC50 [8]: 0.7 µg/mL; MFC [8]: 2.5 µg/mL; MIC [8]: 1.3 µg/mL; MFC [3]: > 20 µg/mL; MFC [4]: 2.5 µg/mL |
